Data: patent US20260125371A1, “METHOD FOR INHIBITING CLOSTRIDIOIDES DIFFICILE SPORE GERMINATION” (UNIVERSITY OF NOTRE DAME DU LAC, priority 2022, published 2026)
Converted amounts (≈) assume the structure as drawn. Where two headings read alike, the source gives them in different places.

System: C. difficile ATCC 43255
Assay: Determination of minimal-inhibitory concentrations (microdilution), C. difficile ATCC 43255
Type: cell-based, Clostridioides difficile
Conditions: for MIC: Clostridioides difficile
[1] = ATCC43255, 24 h, C. difficile ATCC 43255, 24 h, read-out: MIC (μg/mL) 24 h
[2] = ATCC43255, 48 h, C. difficile ATCC 43255, 48-h incubation, read-out: MIC (μg/mL) 48 h
[3] = C. difficile ATCC 43255, 48-h incubation

MIC [1] [µg/mL]	MIC [2] [µg/mL]	SMILES	further results
> 128	> 128	FC(F)(F)c1ccc(Oc2ccc(-c3noc(-c4ccncc4)n3)cc2)cc1 [Compound 23, 5-(Pyridin-4-yl)-3-(4-(4-(trifluoromethyl)phenoxy)phenyl)-1,2,4-oxadiazole]	–
> 128	> 128	FC(F)(F)c1ccc(Oc2ccc(-c3noc(-c4cn[nH]c4)n3)cc2)cc1 [Compound 33, 5-(1H-Pyrazol-4-yl)-3-(4-(4-(trifluoromethyl)phenoxy)phenyl)-1,2,4-oxadiazole]	–
> 128	> 128	FC(F)(F)c1ccc(Oc2ccc(-c3noc(-c4cc5ccccc5[nH]4)n3)cc2)cc1 [Compound 48, 5-(1H-Indol-2-yl)-3-(4-(4-(trifluoromethyl)phenoxy)phenyl)-1,2,4-oxadiazole]	–
> 128	–	O=[N+]([O-])c1ccc(-c2nc(-c3ccc(OC4CCCC4)cc3)no2)cc1 [Compound 50, 3-(4-(Cyclopentyloxy)phenyl)-5-(4-nitrophenyl)-1,2,4-oxadiazole]	MIC (μg/mL) 48 h [3]: >128 µg/mL
> 128	> 128	c1cc2cc(-c3nc(-c4ccc(OC5CCCC5)cc4)no3)ccc2[nH]1 [Compound 56, 3-(4-(Cyclopentyloxy)phenyl)-5-(1H-indol-5-yl)-1,2,4-oxadiazole]	MIC (μg/mL) 48 h [3]: >128 µg/mL
> 128	> 128	O=[N+]([O-])c1cn(CCO)c(-c2nc(-c3ccc(OC4CCCC4)cc3)no2)n1 [Compound 58, 3-(4-(Cyclopentyloxy)phenyl)-5-(1-(2-hydroxyethyl)-4-nitro-1H-imidazol-2-yl)-1,2,4-oxadiazole]	antibacterial activity against C. difficile (in words) (C. difficile ATCC43255): lost activity
32 (≈ 90.1 µM)	–	Cn1c(-c2nc(-c3ccc(OC4CCCC4)cc3)no2)cnc1[N+](=O)[O-] [Compound 59, 3-(4-(Cyclopentyloxy)phenyl)-5-(1-methyl-2-nitro-1H-imidazol-5-yl)-1,2,4-oxadiazole]	–
> 128	> 128	C[C@@H](N)c1nc(-c2ccc(OC3CCCC3)cc2)no1 [Compound 61, (R)-1-(3-(4-(Cyclopentyloxy)phenyl)-1,2,4-oxadiazol-5-yl) ethan-1-amine]	–
8 (≈ 23.8 µM)	16 (≈ 47.6 µM)	Oc1ccc(Cc2nc(-c3ccc(OC4CCCC4)cc3)no2)cc1 [Compound 63, 3-(4-(Cyclopentyloxy)phenyl)-5-(4-hydroxybenzyl)-1,2,4-oxadiazole]	–
16 (≈ 47.4 µM)	32 (≈ 94.8 µM)	Oc1ccc(Nc2nc(-c3ccc(OC4CCCC4)cc3)no2)cc1 [Compound 64, 4-((3-(4-(Cyclopentyloxy)phenyl)-1,2,4-oxadiazol-5-yl)amino)phenol]	–
> 128	> 128	Oc1cccc(/C=C/c2nc(-c3ccc(OC4CCCC4)cc3)no2)c1 [Compound 65, 3-(4-(Cyclopentyloxy)phenyl)-(E)-5-(3-hydroxystyryl)-1,2,4-oxadiazole]	–
32 (≈ 91.8 µM)	64 (≈ 184 µM)	Oc1ccc(/C=C/c2nc(-c3ccc(OC4CCCC4)cc3)no2)cc1 [Compound 66, 3-(4-(Cyclopentyloxy)phenyl)-(E)-5-(4-hydroxystyryl)-1,2,4-oxadiazole]	–
> 128	–	Oc1ccc(-c2nc(-c3ccc(Oc4ccccc4)c(Br)c3)no2)cc1 [Compound 79, 4-(3-(3-Bromo-4-phenoxyphenyl)-1,2,4-oxadiazol-5-yl)phenol]	MIC (μg/mL) 48 h [3]: >128 µg/mL
16 (≈ 54.7 µM)	128 (≈ 438 µM)	C#CCOc1ccc(-c2noc(-c3ccc(O)cc3)n2)cc1 [Compound 88, 4-(3-(4-(Prop-2-yn-1-yloxy)phenyl)-1,2,4-oxadiazol-5-yl)phenol]	–
64 (≈ 205 µM)	> 128	COC(OC)c1ccc(-c2noc(-c3ccc(O)cc3)n2)cc1 [Compound 106, 4-(3-(4-(Dimethoxymethyl)phenyl)-1,2,4-oxadiazol-5-yl)phenol]	–
64 (≈ 240 µM)	> 128	O=Cc1ccc(-c2noc(-c3ccc(O)cc3)n2)cc1 [Compound 107, 4-(5-(4-Hydroxyphenyl)-1,2,4-oxadiazol-3-yl)benzaldehyde]	–
32 (≈ 95.2 µM)	32 (≈ 95.2 µM)	Oc1ccc(-c2nc(-c3ccc(C(O)C(F)(F)F)cc3)no2)cc1 (stereo not shown) [Compound 108, 4-(3-(4-(2,2,2-Trifluoro-1-hydroxyethyl)phenyl)-1,2,4-oxadiazol-5-yl)phenol]	–
> 128	> 128	Fc1ccccc1-c1noc(-c2ccc3[nH]ccc3c2)n1 [Compound 125, 3-(2-Fluorophenyl)-5-(1H-indol-5-yl)-1,2,4-oxadiazole]	–
> 128	> 128	CN1CCC(Oc2ccc(-c3noc(-c4ncc([N+](=O)[O-])[nH]4)n3)cc2)C1.Cl (stereo not shown) [Compound 132, 3-(4-((1-Methylpyrrolidin-3-yl)oxy)phenyl)-5-(5-nitro-1H-imidazol-2-yl)-1,2,4-oxadiazole hydrochloride]	–

Continued, compound first:

SMILES	MIC [1] [µg/mL]	MIC [2] [µg/mL]	further results
c1nc2ccc(-c3nc(-c4ccc(OC5CCCC5)cc4)no3)cc2[nH]1 [Compound 55, 5-(1H-Benzo[d]imidazol-6-yl)-3-(4-(cyclopentyloxy)phenyl)-1,2,4-oxadiazole]	128 (≈ 370 µM)	> 128	MIC (μg/mL) 48 h [3]: 128 µg/mL (≈ 370 µM)
C[C@@H](NC(=O)OC(C)(C)C)c1nc(-c2ccc(OC3CCCC3)cc2)no1 [Compound 60, tert-Butyl (R)-(1-(3-(4-(cyclopentyloxy)phenyl)-1,2,4-oxadiazol-5-yl)ethyl) carbamate]	–	–	MIC (μg/mL) 48 h [3]: >128 µg/mL; MIC (μg/mL) 24 h (C. difficile ATCC 43255, 24 h): >128 µg/mL
C[C@@H](NC(=O)OC(C)(C)C)C(=O)N[C@H](C)c1nc(-c2ccc(OC3CCCC3)cc2)no1 [Compound 62, 5-((R)-1-((R)-2-(Boc-amino)propanamido)ethyl)-3-(4-(cyclopentyloxy)phenyl)-1,2,4-oxadiazole]	> 128	> 128	–
Nc1nc(-c2ccc(OC3CCCC3)cc2)no1 [Compound 68, 3-(4-(Cyclopentyloxy)phenyl)-1,2,4-oxadiazol-5-amine]	> 128	> 128	–
O=c1[nH]c(-c2ccc(OC3CCCC3)cc2)no1 [Compound 69, 3-(4-(Cyclopentyloxy)phenyl)-1,2,4-oxadiazol-5 (4H)-one]	64 (≈ 260 µM)	64 (≈ 260 µM)	–
Clc1nc(-c2ccc(OC3CCCC3)cc2)no1 [Compound 70, 5-Chloro-3-(4-(cyclopentyloxy)phenyl)-1,2,4-oxadiazole]	> 128	> 128	–
Oc1ccc(-c2nc(-c3ccc(OC4CCCC=C4Br)cc3)no2)cc1 (stereo not shown) [Compound 78, 4-(3-(4-((2-Bromocyclohex-2-en-1-yl)oxy)phenyl)-1,2,4-oxadiazol-5-yl)phenol]	–	–	MIC (μg/mL) 48 h [3]: >128 µg/mL; MIC (ATCC43255, 24 h, read-out: MIC (μg/mL) 24 h): > 128 µg/mL; MIC (ATCC43255, 48 h, read-out: MIC (μg/mL) 48 h): > 128 µg/mL
C#CCCOc1ccc(-c2noc(-c3ccc(O)cc3)n2)cc1 [Compound 89, 4-(3-(4-(But-3-yn-1-yloxy)phenyl)-1,2,4-oxadiazol-5-yl)phenol]	> 128	> 128	–
O=C(c1ccc(-c2noc(-c3ccc(O)cc3)n2)cc1)C(F)(F)F [Compound 109, 5-(4-Hydroxyphenyl)-3-(4-(2,2,2-trifluoroacetyl)phenyl)-1,2,4-oxadiazole]	8 (≈ 23.9 µM)	8 (≈ 23.9 µM)	–
Fc1ccc2oc3ccc(-c4noc(-c5ccc6[nH]ccc6c5)n4)cc3c2c1 [Compound 121, 3-(8-Fluorodibenzo[b,d]furan-2-yl)-5-(1H-indol-5-yl)-1,2,4-oxadiazole]	> 128	> 128	–
O=[N+]([O-])c1ccc(-c2noc(-c3ccc4[nH]ccc4c3)n2)cc1 [Compound 126, 5-(1H-Indol-5-yl)-3-(4-nitrophenyl)-1,2,4-oxadiazole]	> 128	> 128	–
c1cc2cc(-c3nc(-c4ccc5c(c4)CCN5)no3)ccc2[nH]1 [Compound 129, 5-(1H-Indol-5-yl)-3-(indolin-5-yl)-1,2,4-oxadiazole]	> 128	> 128	–
CC(C)(C)OC(=O)N1CCC(Oc2ccc(-c3noc(-c4ncc([N+](=O)[O-])[nH]4)n3)cc2)CC1 [Compound 133, 3-(4-((1-(tert-Butoxycarbonyl)piperidin-4-yl)oxy)phenyl)-5-(5-nitro-1H-imidazol-2-yl)-1,2,4-oxadiazole]	> 128	> 128	–
Cl.O=[N+]([O-])c1c[nH]c(-c2nc(-c3ccc(OC4CCNCC4)cc3)no2)n1 [Compound 134, 5-(4-Nitro-1H-imidazol-2-yl)-3-(4-(piperidin-4-yloxy)phenyl)-1,2,4-oxadiazole hydrochloride]	> 128	> 128	–
O=C(NNC(=O)c1ccc(OC2CCCC2)cc1)c1ccc(O)cc1 [Compound 138, 4-(Cyclopentyloxy)-N′-(4-hydroxybenzoyl)benzohydrazide]	> 128	> 128	–
Oc1ccc(-c2nnc(-c3ccc(OC4CCCC4)cc3)o2)cc1 [Compound 139, 4-(5-(4-(Cyclopentyloxy)phenyl)-1,3,4-oxadiazol-2-yl)phenol]	> 128	–	MIC (μg/mL) 48 h [3]: >128 µg/mL
